# Test results taken from PMC11374673, “Discovery of isoquinoline sulfonamides as allosteric gyrase inhibitors with activity against fluoroquinolone-resistant bacteria” (Nature Chemistry, 2024).
# Read-outs that look alike come from different tables or passages of the source.
# How the values were obtained:
# K. pneumoniae ATCC 29665 = experiment: MIC by broth microdilution; type: cell-based, Klebsiella pneumoniae
# How it was run: (§1)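 Exponential-phase cultures (OD600 0.5, 37 °C aerobic), diluted 100-fold in CAMHB, were added to twofold compound dilution series. Keio strains grown with 50 µg ml^−1 kanamycin. Plates incubated overnight at 37 °C, shaking at 600 r.p.m.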
# [1] = test system: E. coli BW25113 and single-gene knockouts; experiment: MIC on E. coli strains of the Keio collection; type: cell-based, Escherichia coli; conditions: for MIC: Escherichia coli
# Method: (§2) MIC was determined by broth microdilution. Single-colony cultures were grown to exponential phase (OD600 of 0.5) aerobically at 37 °C. In case of strains from the Keio collection, 50 µg ml^−1 kanamycin was supplemented to the media to ascertain a homogeneous population. The bacterial suspensions were diluted 100-fold in CAMHB and 50 µl was added to a twofold serial dilution series of test compounds (50 µl per well) in polypropylene 96-well microtitre plates to reach a volume of 100 µl. The plates were sealed with breathable membranes and incubated overnight at 37 °C with constant shaking (600 r.p.m.). The MIC was determined as the lowest concentration at which no visible bacterial growth was observed as compared with the inoculum controls from the median of a minimum of triplicates.
# [2] = test system: S. aureus ATCC 29213 / ATCC BAA1717; experiment: MIC by broth microdilution; type: cell-based
# Method: as §2
# A. baumannii ATCC BAA747 = experiment: MIC by broth microdilution; type: cell-based
# Method: as §2
# P. aeruginosa ATCC 27853 = experiment: MIC by broth microdilution; type: cell-based
# Method: as §2
# E. coli W3110 = experiment: MIC by broth microdilution; type: cell-based, Escherichia coli; conditions: for antimicrobial activity: relative to parent compound
# How it was run: as §1
# [3] = test system: E. coli W3110 gyrA S97L, S83L, D87N; experiment: MIC against CRISPR/Cas9 gyrA point mutants; type: cell-based, Escherichia coli; conditions: for MIC: Escherichia coli; for susceptibility of gyrA S97L mutant: CRISPR–Cas9 S97L
# Method: as §2
# Mutants of the DNA gyrase subunit A encoding gene (gyrA) were constructed following the protocol for gene editing via the CRISPR–Cas9 system. Strains and plasmids used are listed in Supplementary Table 15, and primers used can be found in Supplementary Table 16. The following mutations were created: S97L in E. coli W3110. Two common mutations in the gyrA gene that give resistance to fluoroquinolone antibiotics were created in E. coli W3110, namely S83L and D87N. To create the gyrA (S97L) mutants, the construct psgRNA-gyrA-M5 was assembled as follows: The 20-nt spacer sequence was introduced by PCR on pTargetF using primers gyrA_P11 and gyrA_P12, the homology-directed repair (HDR) arms were amplified from E. coli W3110 genomic DNA by PCR using primer pairs gyrA_P05 and gyrA_P013, and gyrA_P08 and gyrA_P14. The three PCR fragments generated were cloned into the SpeI and BglII digested pTargetF via Gibson assembly. To avoid off-target effects of CRISPR, besides desired point mutation for gyrA (S97L), four other silent point mutations were also included in the HDR template. Consequently, the amino acid sequence of gyrA will remain the same in the generated mutant except for the desired mutation. Similarly, constructs psgRNA-gyrA-S83L and psgRNA-gyrA-D87N were created to introduce mutations S83L and D87N in gyrA, respectively. In psgRNA-gyrA-S83L, spacer sequence was introduced using primers gyrA_P12 and gyrA_P17, HDR template was amplified using primer pairs gyrA_P05 and gyrA_P18, and gyrA_P08 and gyrA_P19. In psgRNA-gyrA-D87N, spacer sequence was introduced using primers gyrA_P12 and gyrA_P20, HDR template was amplified using primer pairs gyrA_P05 and gyrA_P21, and gyrA_P08 and gyrA_P22. The verified constructs for gyrA engineering were transformed into E. coli W3110 carrying pCas9, and plated in LB containing kanamycin (50 µg ml^−1) for the selection of the pCas9 plasmid and spectinomycin (100 µg ml^−1) for the selection of psgRNA-gyrA-X. The plates were incubated at 30 °C. Plasmids were cured by growing the strains with 0.5 mM isopropylthiogalactoside with no antibiotics to lose first the psgRNA-gyrA plasmids. After losing the spectinomycin resistance, the strain was grown in LB with no antibiotics at 42 °C to lose the pCas plasmid. Colony PCR was performed on plasmid-free colonies using primers gyrA_P9 and gyrA_P10, and PCR products were sequenced to confirm the desired mutation
# E. coli ATCC 25922 = experiment: MIC by broth microdilution; type: cell-based
# Method: as §2, with “r.p.m.).” for “r.p.m.). The MIC was determined as the lowest concentration at which no visible bacterial growth was observed as compared with the inoculum controls from the median of a minimum of triplicates.”
# [4] = test system: clinical isolates of E. coli; experiment: MIC against clinical isolates and potentiation by 4 µM PMBN; type: cell-based, Escherichia coli; conditions: for MSC: with 4 µM PMBN; for MIC: Escherichia coli
# Method: as §2, with “r.p.m.).” for “r.p.m.). The MIC was determined as the lowest concentration at which no visible bacterial growth was observed as compared with the inoculum controls from the median of a minimum of triplicates.”
# [5] = Klebsiella pneumoniae, ATCC29665, read-out: MIC K. pneumoniae ATCC 29665
# [6] = BW25113, JW3596 ΔrfaC, LPS disruption (genetic)
# [7] = BW25113, read-out: MIC E. coli BW25113, parent strain
# [8] = E. coli W3110 gyrA D87N (FQ-resistant 2)
# [9] = E. coli W3110 gyrA S83L (FQ-resistant 1)
# [10] = E. coli W3110 gyrA S97L (LEI-800-resistant)
# [11] = E. coli 1075, fold change in MIC after 4 µM PMBN
# [12] = E. coli 552059.1, fold change in MIC after 4 µM PMBN
# [13] = E. coli 552060.1, fold change in MIC after 4 µM PMBN
# [14] = E. coli MVAST0072, fold change in MIC after 4 µM PMBN
# [15] = E. coli NCTC13463, fold change in MIC after 4 µM PMBN
# [16] = E. coli NCTC13846, fold change in MIC after 4 µM PMBN
# [17] = E. coli mcr-1, fold change in MIC after addition of 4 µM PMBN
# [18] = E. coli 1075 (MDR), read-out: MIC
# [19] = E. coli 552059.1, read-out: MIC
# [20] = E. coli 552060.1, read-out: MIC
# [21] = E. coli MVAST0072 (MDR), read-out: MIC
# [22] = NCTC13463, E. coli NCTC13463 (ESBL), read-out: MIC
# [23] = NCTC13846, E. coli NCTC13846 (MDR, mcr-1)
# [24] = Klebsiella pneumoniae, ATCC29665, broth microdilution, read-out: MIC K. pneumoniae ATCC 29665
# [25] = Staphylococcus aureus; read-out: MIC S. aureus ATCC 29213
# [26] = Staphylococcus aureus; read-out: MIC S. aureus ATCC BAA1717
# [27] = Acinetobacter baumannii, ATCCBAA747; read-out: MIC A. baumannii ATCC BAA747
# [28] = Pseudomonas aeruginosa, ATCC27853; read-out: MIC P. aeruginosa ATCC 27853
# [29] = Escherichia coli, W3110, WT, broth microdilution, read-out: MIC E. coli W3110
# [30] = Escherichia coli, ATCC25922; read-out: MIC E. coli ATCC 25922
compound,measurement,setting,value
"O=C(O)c1cn(C2CC2)c2cc(N3CCNCC3)c(F)cc2c1=O [CIP, ciprofloxacin]",MIC,K. pneumoniae ATCC 29665; [5],0.012 µM
same,MIC,"[1]; BW25113, JW3594 ΔrfaD",> 0.048 µM
same,MIC,[1]; [6],0.024 µM
same,MIC,"[1]; BW25113, JW3600 ΔrfaY",0.024 µM
same,MIC,"[1]; BW25113, JW3602 ΔrfaI",0.024 µM
same,MIC,"[1]; BW25113, JW3605 ΔrfaP",0.048 µM
same,MIC,"[1]; BW25113, JW5503 ΔTolC",0.024 µM
same,MIC,[1]; [7],0.024 µM
same,MIC,"[2]; Staphylococcus aureus, read-out: MIC S. aureus ATCC 29213",0.755 µM
same,MIC,"[2]; Staphylococcus aureus, read-out: MIC S. aureus ATCC BAA1717",> 0.755 µM
same,MIC,"A. baumannii ATCC BAA747; Acinetobacter baumannii, ATCCBAA747, read-out: MIC A. baumannii ATCC BAA747",0.755 µM
same,MIC,"P. aeruginosa ATCC 27853; Pseudomonas aeruginosa, ATCC27853, read-out: MIC P. aeruginosa ATCC 27853",0.377 µM
same,MIC,"E. coli W3110; Escherichia coli, W3110",7.8 ng/mL
same,MIC,"E. coli W3110; Escherichia coli, W3110, read-out: MIC E. coli WT strain",0.024 µM
same,MIC,[3]; [8],> 1.5 µM
same,MIC,[3]; [9],> 1.5 µM
same,MIC,[3]; [10],0.024 µM
same,MIC,"E. coli ATCC 25922; Escherichia coli, ATCC25922, read-out: MIC E. coli ATCC 25922",0.024 µM
O=S(=O)(NC[C@@H]1CC[C@H](c2ccc(-c3ccc(F)cc3)cc2)N1)c1cccc2cnccc12 [Compound 101],FC,[4]; [11],8
same,MSC,[4]; E. coli 1075,6.25 µM
same,FC,[4]; [12],16
same,MSC,[4]; E. coli 552059.1,0.8 µM
same,FC,[4]; [13],16
same,MSC,[4]; E. coli 552060.1,0.8 µM
same,FC,[4]; [14],16
same,MSC,[4]; E. coli MVAST0072,0.8 µM
same,FC,[4]; [15],8
same,MSC,[4]; E. coli NCTC13463,0.4 µM
same,FC,[4]; [16],4
same,MSC,[4]; E. coli NCTC13846,3.1 µM
same,FC,[4]; [17],4
same,MSC,[4]; E. coli mcr-1,3.1 µM
same,MIC,[4]; [18],50 µM
same,MIC,[4]; [19],12.5 µM
same,MIC,[4]; [20],12.5 µM
same,MIC,[4]; [21],12.5 µM
same,MIC,[4]; [22],3.1 µM
same,MIC,[4]; [23],12.5 µM
same,MIC,K. pneumoniae ATCC 29665; [24],3.1 µM
same,MIC,[1]; [7],1.6 µM
same,MIC,[2]; [25],> 50 µM
same,MIC,[2]; [26],> 50 µM
same,MIC,A. baumannii ATCC BAA747; [27],25 µM
same,MIC,P. aeruginosa ATCC 27853; [28],> 50 µM
same,MIC,E. coli W3110; [29],1.6 µM
same,susceptibility of gyrA S97L mutant,[3],resistant
same,MIC,[3]; [8],3.1 µM
same,MIC,[3]; [9],3.1 µM
same,MIC,[3]; [10],> 50 µM
same,MIC,E. coli ATCC 25922; [30],3.1 µM
O=S(=O)(NC[C@H]1CC[C@@H](c2ccc(-c3ccc(F)nc3)cc2)N1)c1cccc2cnccc12 [LEI-801],MIC,K. pneumoniae ATCC 29665; [24],> 50 µM
same,MIC,"K. pneumoniae ATCC 29665; broth microdilution, listed as LEI-801 (99), read-out: MIC K. pneumoniae ATCC 29665",> 50 µM
same,potency against ΔtolC efflux pump mutant,[1],No increase in potency
same,MIC,"[1]; BW25113, JW3594 ΔrfaD",3.1 µM
same,MIC,[1]; [6],3.1 µM
same,MIC,"[1]; BW25113, JW3600 ΔrfaY",> 50 µM
same,MIC,"[1]; BW25113, JW3602 ΔrfaI",> 50 µM
same,MIC,"[1]; BW25113, JW3605 ΔrfaP",12.5 µM
same,MIC,"[1]; BW25113, JW5503 ΔTolC",> 50 µM
same,MIC,[1]; [7],> 50 µM
same,MIC,E. coli W3110; [29],> 50 µM
same,MIC,"E. coli W3110; WT, broth microdilution, listed as LEI-801 (99), read-out: MIC E. coli W3110",> 50 µM
same,antimicrobial activity,E. coli W3110; listed as 99,completely inactive
same,antimicrobial activity,E. coli W3110; listed as 99 (LEI-801),inactive
O=S(=O)(NCCNCc1ccc(-c2ccc(F)nc2)cc1)c1cccc2cnccc12 [Compound 60],FC,[4]; [11],> 2
same,MSC,[4]; E. coli 1075,25 µM
same,FC,[4]; [12],16
same,MSC,[4]; E. coli 552059.1,3.1 µM
same,FC,[4]; [13],16
same,MSC,[4]; E. coli 552060.1,3.1 µM
same,FC,[4]; [14],16
same,MSC,[4]; E. coli MVAST0072,3.1 µM
same,FC,[4]; [15],8
same,MSC,[4]; E. coli NCTC13463,1.6 µM
same,FC,[4]; [16],> 2
same,MSC,[4]; E. coli NCTC13846,25 µM
same,FC,[4]; [17],4
same,MSC,[4]; E. coli mcr-1,12.5 µM
same,MIC,[4]; [18],> 50 µM
same,MIC,[4]; [19],50 µM
same,MIC,[4]; [20],50 µM
same,MIC,[4]; [21],50 µM
same,MIC,[4]; E. coli mcr-1 (MCR),50 µM
same,MIC,[4]; [22],12.5 µM
same,MIC,[4]; [23],> 50 µM
same,MIC,K. pneumoniae ATCC 29665; [24],25 µM
same,MIC,K. pneumoniae ATCC 29665; [5],6.25 µM
same,MIC,[1]; [7],6.25 µM
same,MIC,[2]; [25],> 50 µM
same,MIC,[2]; [26],> 50 µM
same,MIC,A. baumannii ATCC BAA747; [27],> 50 µM
same,MIC,P. aeruginosa ATCC 27853; [28],> 50 µM
same,MIC,"E. coli W3110; Escherichia coli, W3110, read-out: MIC E. coli W3110",6.25 µM
same,susceptibility of gyrA S97L mutant,[3],resistant
same,MIC,[3]; [8],50 µM
same,MIC,[3]; [9],25 µM
same,MIC,[3]; [10],> 50 µM
same,MIC,E. coli ATCC 25922; [30],12.5 µM
